The NIST ThermoML archive (doi:10.1016/j.jct.2014.07.024)

Experiment: excess molar enthalpy (molar enthalpy of mixing); xn = mol fraction of the nth substance listed
Details: 101 kPa, Crystal, Calvet calorimetry

O=[N+]([O-])[O-].[Rb+] [rubidium nitrate] + O=[N+]([O-])[O-].[Cs+]
excess molar enthalpy [kcal/mol]
Details	298.15 K	473.15 K
x1 = 0.1	0.12	–
x1 = 0.16	–	0.0619
x1 = 0.23	0.263	–
x1 = 0.32	0.287	–
x1 = 0.36	–	0.132
x1 = 0.5	0.335	0.139
x1 = 0.57	0.335	–
x1 = 0.65	0.311	–
x1 = 0.68	0.287	–
x1 = 0.73	–	0.103
x1 = 0.8	0.215	–
